According to patent US12599672B2, “KRAS proteolysis targeting chimeras” (PAQ Therapeutics Inc., priority 2023, dated 2026):

Experiments:
Format in all cases: cell-based
KRAS G12D = biological target: T1, KRAS G12D (Homo sapiens, UniProt P01116, G12D); assay: KRAS G12D HiBit assay; settings: AsPc-1-KRAS (G12D)-HiBit-KI cell, compound treatment for 24 hours; for DC50: absolute DC50
T1 construct: AsPc-1-KRAS (G12D)-HiBit-KI cell (Pharmaron); host or cells: AsPc-1-KRAS (G12D)-HiBit-KI cells (HiBiT knock-in at the endogenous KRAS locus)
Summary of the method: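 Cells were treated for 24 h with compounds in a 3-fold, 10-point dilution series from a 0.3 mM DMSO stock, then equilibrated 15 min at room temperature. KRAS G12D HiBiT levels were read by luminescence after lytic Nano-Glo HiBiT reagent with LgBiT; inhibition calculated relative to 0.1% DMSO high control.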

KRAS G12V = biological target: T2, KRAS G12V (Homo sapiens, UniProt P01116, G12V); assay: KRAS G12V HiBit assay; settings: SW620-KRAS (G12V)-HiBit-KI cells, compound treatment for 24 hours
T2 construct: SW620-KRAS (G12V)-HiBit-KI cell (Pharmaron); host or cells: SW620-KRAS (G12V)-HiBit-KI cells (HiBiT knock-in at the endogenous KRAS locus)
Summary of the method: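 HiBiT-tagged KRAS G12V cells treated 24 h with compound in a 3-fold, 10-point series (0.3 mM DMSO stock); lytic HiBiT reagent with LgBiT added after 15 min room-temperature equilibration. Degradation calculated against 0.1% DMSO high control.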

KRAS = biological target: T3, KRAS (Homo sapiens, UniProt P01116); assay: KRASamp MSD assay; settings: KE39 (KRAS amplified) cells, treated with test compounds for 24 hr, MSD readout of KRAS degradation
T3 construct: endogenous in cells; host or cells: KE39 (KRAS amplified) cells
Summary of the method: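 KRAS-amplified KE39 cells treated with compound for 24 hr, then lysed in RIPA buffer with protease/phosphatase inhibitors. KRAS protein measured by MSD sandwich immunoassay against a recombinant WT KRAS standard curve; DC50 derived from curve fitting of degradation.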

[1] = numeric bounds given in place of class symbols

T2 sequence (P01116 1-188 isoform P01116-2 G12V): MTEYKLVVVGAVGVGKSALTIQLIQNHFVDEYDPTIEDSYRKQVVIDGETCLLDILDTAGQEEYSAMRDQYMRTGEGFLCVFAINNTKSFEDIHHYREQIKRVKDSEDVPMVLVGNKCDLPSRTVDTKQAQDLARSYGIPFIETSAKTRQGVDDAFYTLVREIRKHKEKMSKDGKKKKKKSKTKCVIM
T1 sequence (P01116 1-188 isoform P01116-2 G12D): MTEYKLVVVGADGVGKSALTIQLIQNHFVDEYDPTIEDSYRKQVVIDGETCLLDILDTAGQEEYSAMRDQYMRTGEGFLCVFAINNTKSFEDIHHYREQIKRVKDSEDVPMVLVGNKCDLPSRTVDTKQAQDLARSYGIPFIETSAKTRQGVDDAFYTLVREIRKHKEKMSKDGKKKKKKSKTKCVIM
T3 sequence (P01116 1-188 isoform P01116-2): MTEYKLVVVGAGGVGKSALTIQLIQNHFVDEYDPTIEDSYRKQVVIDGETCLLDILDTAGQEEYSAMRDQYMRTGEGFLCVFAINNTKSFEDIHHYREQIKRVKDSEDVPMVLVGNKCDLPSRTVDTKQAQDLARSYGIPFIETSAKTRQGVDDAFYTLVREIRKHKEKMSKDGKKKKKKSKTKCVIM

DC50 (KRAS G12D; class symbols) [nM]	Dmax (KRAS G12D; class symbols) [%]	DC50 (KRAS G12V; class symbols) [nM]	DC50 (KRAS) [nM]	DC50 (KRAS G12D; [1]) [nM]	DC50 (KRAS G12V; numeric bounds) [nM]	Structure (SMILES)
< 100	> 50	< 10	< 1	–	–	CCc1c(F)ccc2cc(O)cc(-c3ncc4c(N5CCC[C@@](C)(O)C5)nc(OC[C@@]56CCCN5[C@H](COC(=O)N5CCC(CN7CCN(c8ccc9c(c8)n(C)c(=O)n9C8CCC(=O)NC8=O)CC7)CC5)CC6)nc4c3F)c12 (stereo partly drawn) [Compound 95, [(3S,8S)-8-[[7-(8-ethyl-7-fluoro-3-hydroxy-1-naphthyl)-8-fluoro-4-[(3R)-3-hydroxy-3-methyl-1-piperidyl]pyrido[4,3-d]pyrimidin-2-yl]oxymethyl]-1,2,3,5,6,7-hexahydropyrrolizin-3-yl]methyl4-[[4-[1-(2,6-dioxo-3-piperidyl)-3-methyl-2-oxo-benzimidazol-5-yl]piperazin-1-yl]methyl]piperidine-1-carboxylate]
–	–	> 100	1 to 10	> 100	–	CCc1c(F)ccc2cc(O)cc(-c3ncc4c(N5CCC[C@@](C)(O)C5)nc(OC[C@]56CCCN5[C@H](COC(=O)N5CCC(c7cccc8c7n(C)c(=O)n8C7CCC(=O)NC7=O)CC5)CC6)nc4c3F)c12 (stereo partly drawn) [Compound 310, ((3S,7aR)-7a-(((7-(8-ethyl-7-fluoro-3-hydroxynaphthalen-1-yl)-8-fluoro-4-((R)-3-hydroxy-3-methylpiperidin-1-yl)pyrido[4,3-d]pyrimidin-2-yl)oxy)methyl)hexahydro-1H-pyrrolizin-3-yl)methyl 4-(1-(2,6-dioxopiperidin-3-yl)-3-methyl-2-oxo-2,3-dihydro-1H-benzo[d]imidazol-4-yl)piperidine-1-carboxylate]
< 100	–	< 10	1 to 10	–	–	C#Cc1c(F)ccc2cc(O)cc(-c3ncc4c(N5CCC[C@@](C)(O)C5)nc(OCC5(CN6CCN(CC7CCN(c8ccc9c(c8)C(=O)N(C8CCC(=O)NC8=O)C9=O)CC7)CC6)CC5)nc4c3F)c12 (stereo partly shown) [Compound 50]
< 100	–	< 10	< 1	–	–	CCc1c(F)ccc2cc(O)cc(-c3ncc4c(N5CCC[C@@](C)(O)C5)nc(OC[C@@]56CCCN5[C@H](COC(=O)N5CC7(CC(N8CCC(c9ccc%10c(c9)n(C)c(=O)n%10C9CCC(=O)NC9=O)CC8)C7)C5)CC6)nc4c3F)c12 (stereo partly drawn) [Compound 416, ((3S,7aS)-7a-(((7-(8-ethyl-7-fluoro-3-hydroxynaphthalen-1-yl)-8-fluoro-4-((R)-3-hydroxy-3-methylpiperidin-1-yl)pyrido[4,3-d]pyrimidin-2-yl)oxy)methyl)hexahydro-1H-pyrrolizin-3-yl)methyl 6-(4-(1-(2,6-dioxopiperidin-3-yl)-3-methyl-2-oxo-2,3-dihydro-1H-benzo[d]imidazol-5-yl)piperidin-1-yl)-2-azaspiro[3.3]heptane-2-carboxylate]
–	–	–	< 1	> 100	> 79.2	C#Cc1c(F)ccc2cccc(-c3ncc4c(N5CCC[C@@](C)(O)C5)nc(OC[C@]56CCCN5[C@H](COC(=O)N5CCC(CN7CCC(c8ccc9c(c8)n(C)c(=O)n9C8CCC(=O)NC8=O)CC7)CC5)CC6)nc4c3F)c12 (stereo partly shown) [Compound 141]
< 100	–	< 10	1 to 10	–	–	CCc1cccc2cc(O)cc(-c3ncc4c(N5CCC[C@@](C)(O)C5)nc(OC[C@@]56CCCN5[C@H](COC(=O)N5CCC(CN7CCC(c8ccc9c(c8)n(C)c(=O)n9C8CCC(=O)NC8=O)CC7)CC5)CC6)nc4c3F)c12 (stereo partly shown) [Compound 145]
–	–	> 100	≥ 10	> 100	–	CCc1c(F)ccc2cc(O)cc(-c3ncc4c(N5CC6(CCC6)C5)nc(OC[C@@]56CCCN5[C@H](COC(=O)N5CCC7(CC5)CC(N5CCC(c8ccc9c(c8)n(C)c(=O)n9C8CCC(=O)NC8=O)CC5)C7)CC6)nc4c3F)c12 (stereo partly drawn) [Compound 347, ((3S,7aS)-7a-(((7-(8-ethyl-7-fluoro-3-hydroxynaphthalen-1-yl)-8-fluoro-4-(2-azaspiro[3.3]heptan-2-yl)pyrido[4,3-d]pyrimidin-2-yl)oxy)methyl)hexahydro-1H-pyrrolizin-3-yl)methyl 2-(4-(1-(2,6-dioxopiperidin-3-yl)-3-methyl-2-oxo-2,3-dihydro-1H-benzo[d]imidazol-5-yl)piperidin-1-yl)-7-azaspiro[3.5]nonane-7-carboxylate]
–	–	< 10	< 1	> 38.3	–	C#Cc1c(F)ccc2cc(O)cc(-c3ncc4c(N5CCC[C@@](C)(O)C5)nc(OC[C@]56CCCN5[C@@H](COC(=O)N5CCC(CN7CCC(c8ccc9c(c8)n(C)c(=O)n9C8CCC(=O)NC8=O)CC7)CC5)CC6)nc4c3F)c12 (stereo partly drawn) [Compound 126, ((3R,7aR)-7a-(((7-(8-Ethynyl-7-fluoro-3-hydroxynaphthalen-1-yl)-8-fluoro-4-((R)-3-hydroxy-3-methylpiperidin-1-yl)pyrido[4,3-d]pyrimidin-2-yl)oxy)methyl)hexahydro-1H-pyrrolizin-3-yl)methyl 4-((4-(1-(2,6-dioxopiperidin-3-yl)-3-methyl-2-oxo-2,3-dihydro-1H-benzo[d]imidazol-5-yl)piperidin-1-yl)methyl) piperidine-1-carboxylate]
< 100	–	< 10	< 1	–	–	CCc1c(F)ccc2cc(O)cc(-c3ncc4c(N5CCC[C@@](C)(O)C5)nc(OC[C@@]56CCCN5[C@H](COC(=O)N5CCC7(CCC(N8CCC(c9ccc%10c(c9)n(C)c(=O)n%10C9CCC(=O)NC9=O)CC8)CC7)CC5)CC6)nc4c3F)c12 (stereo partly drawn) [Compound 465, ((3S,7aS)-7a-(((7-(8-ethyl-7-fluoro-3-hydroxynaphthalen-1-yl)-8-fluoro-4-((R)-3-hydroxy-3-methylpiperidin-1-yl)pyrido[4,3-d]pyrimidin-2-yl)oxy)methyl)hexahydro-1H-pyrrolizin-3-yl)methyl 9-(4-(1-(2,6-dioxopiperidin-3-yl)-3-methyl-2-oxo-2,3-dihydro-1H-benzo[d]imidazol-5-yl)piperidin-1-yl)-3-azaspiro[5.5]undecane-3-carboxylate]
< 100	–	< 10	< 1	–	–	CCc1c(F)ccc2cc(O)cc(-c3ncc4c(N5CCC[C@@](C)(O)C5)nc(OC[C@@]56CCCN5[C@H](COC(=O)N5CCC7(CCC(CN8CCC(c9ccc%10c(c9)n(C)c(=O)n%10C9CCC(=O)NC9=O)CC8)CC7)C5)CC6)nc4c3F)c12 (stereo partly drawn) [Compound 457, ((3S,7aS)-7a-(((7-(8-ethyl-7-fluoro-3-hydroxynaphthalen-1-yl)-8-fluoro-4-((R)-3-hydroxy-3-methylpiperidin-1-yl)pyrido[4,3-d]pyrimidin-2-yl)oxy)methyl)hexahydro-1H-pyrrolizin-3-yl)methyl 8-((4-(1-(2,6-dioxopiperidin-3-yl)-3-methyl-2-oxo-2,3-dihydro-1H-benzo[d]imidazol-5-yl)piperidin-1-yl)methyl)-2-azaspiro[4.5]decane-2-carboxylate]
< 100	–	> 100	≥ 10	–	–	CCc1c(F)ccc2cc(O)cc(-c3ncc4c(N5CCC[C@@](C)(O)C5)nc(OC[C@]56CCCN5[C@H](COC(=O)NC5CCN(c7cccc8c7n(C)c(=O)n8C7CCC(=O)NC7=O)CC5)CC6)nc4c3F)c12 (stereo partly drawn) [Compound 311, ((3S,7aR)-7a-(((7-(8-ethyl-7-fluoro-3-hydroxynaphthalen-1-yl)-8-fluoro-4-((R)-3-hydroxy-3-methylpiperidin-1-yl)pyrido[4,3-d]pyrimidin-2-yl)oxy)methyl)hexahydro-1H-pyrrolizin-3-yl)methyl (1-(1-(2,6-dioxopiperidin-3-yl)-3-methyl-2-oxo-2,3-dihydro-1H-benzo[d]imidazol-4-yl)piperidin-4-yl)carbamate]
< 100	–	< 10	< 1	–	–	CCc1c(F)ccc2cc(O)cc(-c3ncc4c(N5CCC[C@@](C)(O)C5)nc(OC[C@@]56CCCN5[C@H](COC(=O)N5CCC(F)(CN7CCC(c8ccc9c(c8)n(C)c(=O)n9C8CCC(=O)NC8=O)CC7)CC5)CC6)nc4c3F)c12 (stereo partly drawn) [Compound 156, ((3S,7AS)-7a-(((7-(8-ethyl-7-fluoro-3-hydroxynaphthalen-1-yl)-8-fluoro-4-((R)-3-hydroxy-3-methylpiperidin-1-yl)pyrido[4,3-d]pyrimidin-2-yl)oxy)methyl)hexahydro-1H-pyrrolizin-3-yl)methyl 4-((4-(1-(2,6-dioxopiperidin-3-yl)-3-methyl-2-oxo-2,3-dihydro-1H-benzo[d]imidazol-5-yl)piperidin-1-yl)methyl)-4-fluoropiperidine-1-carboxylate]
